{
  "source": "PubChem BioAssay AID1259411",
  "about": "(Chemical Carcinogenesis Research Information System (CCRIS), 2018)",
  "tested_on": "rodent carcinogenicity bioassays, tumor incidence",
  "experiment": "CCRIS carcinogenicity studies",
  "conditions": "Route: ORAL",
  "summary_of_the_method": "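NCI-built, expert-reviewed records of carcinogenicity and related test outcomes (mutagenicity, tumor promotion/inhibition) compiled from published and report sources, historical span 1985-2011, not updated.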",
  "note": "Activity calls are given as the source filed them. The rule behind the calls is not given here.",
  "data": [
    {"smiles": "F", "values": [
      {"measurement": "carcinogen call", "setting": "Species: MOUSE, Strain/Sex: B6C3F1/FEMALE, Dose: 0, 25, 100, 175 PPM IN DRINKING WATER FOR 103 WK (STUDY DURATION: 103 WK), Dose: 0, 25, 100, 175 PPM IN DRINKING WATER FOR 103 WK (STUDY DURATION: 103 WK)", "result": "inactive; negative"},
      {"measurement": "carcinogen call", "setting": "Species: MOUSE, Strain/Sex: B6C3F1/MALE, Dose: 0, 25, 100, 175 PPM IN DRINKING WATER FOR 103 WK (STUDY DURATION: 103 WK), Dose: 0, 25, 100, 175 PPM IN DRINKING WATER FOR 103 WK (STUDY DURATION: 103 WK)", "result": "inactive; negative"},
      {"measurement": "carcinogen call", "setting": "Species: MOUSE, Strain/Sex: F344/MALE, Dose: 0, 25, 100, 175 PPM IN DRINKING WATER FOR 103 WK (STUDY DURATION: 103 WK), Dose: 0, 25, 100, 175 PPM IN DRINKING WATER FOR 103 WK (STUDY DURATION: 103 WK), Tumor Site: Type of Lesion: BONE: OSTEOSARCOMA", "result": "equivocal"},
      {"measurement": "carcinogen call", "setting": "Species: RAT, Strain/Sex: F344/FEMALE, Dose: 0, 25, 100, 175 PPM IN DRINKING WATER FOR 103 WK (STUDY DURATION: 103 WK), Dose: 0, 25, 100, 175 PPM IN DRINKING WATER FOR 103 WK (STUDY DURATION: 103 WK)", "result": "inactive; negative"},
      {"measurement": "carcinogen call", "setting": "Species: RAT, Strain/Sex: SPRAGUE-DAWLEY/FEMALE, Dose: 0, 4, 10, 25 MG/KG/D ADDED TO LOW-FLUORIDE DIET FOR DURATION OF STUDY (STUDY DURATION: 99 WK), Dose: 0, 4, 10, 25 MG/KG/D ADDED TO LOW-FLUORIDE DIET FOR DURATION OF STUDY (STUDY DURATION: 99 WK)", "result": "inactive; negative"},
      {"measurement": "carcinogen call", "setting": "Species: RAT, Strain/Sex: SPRAGUE-DAWLEY/MALE, Dose: 0, 4, 10, 25 MG/KG/D ADDED TO LOW-FLUORIDE DIET FOR DURATION OF STUDY (STUDY DURATION: 95 WK), Dose: 0, 4, 10, 25 MG/KG/D ADDED TO LOW-FLUORIDE DIET FOR DURATION OF STUDY (STUDY DURATION: 95 WK)", "result": "inactive; negative"}
    ]},
    {"smiles": "Clc1cccc(-c2ccc(Cl)c(Cl)c2Cl)c1Cl", "values": [
      {"measurement": "carcinogen call", "setting": "Species: MOUSE, Strain/Sex: BALB/MALE, Dose: 300 MG/KG IN DIET FOR 6 OR 11 MO, Tumor Site: Type of Lesion: LIVER: HEPATOMA", "result": "active; positive"},
      {"measurement": "carcinogen call", "setting": "Species: RAT, Strain/Sex: F344/FEMALE, Dose: 0, 25, 50, 100 PPM IN DIET FOR 104-105 WK (STUDY DURATION: 104-105 WK), Dose: 0, 25, 50, 100 PPM IN DIET FOR 104-105 WK (STUDY DURATION: 104-105 WK), Tumor Site: Type of Lesion: LIVER: ADENOMA, STOMACH: ADENOMA, ADENOCARCINOMA", "result": "equivocal"},
      {"measurement": "carcinogen call", "setting": "Species: RAT, Strain/Sex: F344/MALE, Dose: 0, 25, 50, 100 PPM IN DIET FOR 104-105 WK (STUDY DURATION: 104-105 WK), Dose: 0, 25, 50, 100 PPM IN DIET FOR 104-105 WK (STUDY DURATION: 104-105 WK), Tumor Site: Type of Lesion: LIVER: HEPATOCELLULAR ADENOMA, HEPATOCELLULAR CARCINOMA, GASTROINTESTINAL SYSTEM: ADENOCARCINOMA OR CARCINOMA", "result": "equivocal"},
      {"measurement": "carcinogen call", "setting": "Species: RAT, Strain/Sex: SPRAGUE-DAWLEY/FEMALE, Dose: 0, 25, 50, 100 PPM IN DIET FOR THE DURATION OF STUDY (STUDY DURATION: 24 MO), Dose: 0, 25, 50, 100 PPM IN DIET FOR THE DURATION OF STUDY (STUDY DURATION: 24 MO), Tumor Site: Type of Lesion: LIVER: TUMOR", "result": "active; positive"},
      {"measurement": "carcinogen call", "setting": "Species: RAT, Strain/Sex: SPRAGUE-DAWLEY/MALE, Dose: 0, 25, 50, 100 PPM IN DIET FOR THE DURATION OF STUDY (STUDY DURATION: 24 MO), Dose: 0, 25, 50, 100 PPM IN DIET FOR THE DURATION OF STUDY (STUDY DURATION: 24 MO), Tumor Site: Type of Lesion: THYROID GLAND: ADENOMA OR CARCINOMA", "result": "active; positive"}
    ]},
    {"smiles": "Cc1c[nH]c(=O)[nH]c1=O", "values": [
      {"measurement": "carcinogen call", "setting": "Species: RAT, Strain/Sex: F344/MALE, Dose: 0, 1, 3% IN DIET FOR 36 WK (STUDY DURATION: 40 WK), Dose: 0, 1, 3% IN DIET FOR 36 WK (STUDY DURATION: 40 WK), Tumor Site: Type of Lesion: BLADDER: PAPILLOMA, CARCINOMA", "result": "active; positive"}
    ]}
  ]
}
